Data as given in patent publication US10308639B2, “Phosphatidylinositol 3-kinase inhibitors” (Gilead Sciences, Inc., priority 2014, dated 2019).
Read-outs that look alike come from different tables or passages of the source.

What was measured:
Assay type in all cases: biochemical
PI3Kβ = target: T1, PI3Kβ (Homo sapiens, UniProt P42338); assay: TR-FRET enzymatic activity assay, PI3Kβ
T1 construct: made in house

PI3Kδ = target: T2, PI3Kδ (Homo sapiens, UniProt O00329); assay: TR-FRET enzymatic activity assay, PI3Kδ
T2 construct: made in house
T2 sequence (O00329 whole entry): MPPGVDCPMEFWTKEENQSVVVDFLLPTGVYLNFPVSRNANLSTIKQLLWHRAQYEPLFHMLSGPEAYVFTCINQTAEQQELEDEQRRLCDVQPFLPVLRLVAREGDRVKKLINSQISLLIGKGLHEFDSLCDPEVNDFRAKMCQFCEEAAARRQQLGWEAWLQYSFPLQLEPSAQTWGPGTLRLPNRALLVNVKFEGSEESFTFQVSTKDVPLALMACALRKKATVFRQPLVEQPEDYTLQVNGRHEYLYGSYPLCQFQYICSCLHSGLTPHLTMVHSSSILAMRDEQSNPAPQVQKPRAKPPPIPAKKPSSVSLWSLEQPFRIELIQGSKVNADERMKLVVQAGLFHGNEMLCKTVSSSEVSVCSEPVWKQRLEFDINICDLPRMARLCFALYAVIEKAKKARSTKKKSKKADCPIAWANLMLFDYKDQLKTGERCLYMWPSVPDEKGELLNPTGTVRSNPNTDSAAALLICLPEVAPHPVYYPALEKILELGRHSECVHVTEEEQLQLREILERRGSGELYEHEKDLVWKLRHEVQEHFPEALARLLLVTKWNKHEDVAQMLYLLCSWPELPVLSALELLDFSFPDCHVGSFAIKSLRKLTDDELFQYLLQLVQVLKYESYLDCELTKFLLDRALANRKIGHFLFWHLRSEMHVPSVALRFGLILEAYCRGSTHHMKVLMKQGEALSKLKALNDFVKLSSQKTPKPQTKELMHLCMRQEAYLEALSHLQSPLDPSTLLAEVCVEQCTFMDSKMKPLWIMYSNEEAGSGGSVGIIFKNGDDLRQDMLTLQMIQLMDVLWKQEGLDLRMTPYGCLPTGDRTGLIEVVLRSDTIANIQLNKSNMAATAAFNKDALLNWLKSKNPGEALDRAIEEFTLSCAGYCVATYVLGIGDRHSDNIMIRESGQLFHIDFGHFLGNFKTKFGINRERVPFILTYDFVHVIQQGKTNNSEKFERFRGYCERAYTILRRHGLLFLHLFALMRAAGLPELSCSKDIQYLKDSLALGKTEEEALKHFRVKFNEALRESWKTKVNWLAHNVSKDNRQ
T2 sequence (P27986 whole entry partner): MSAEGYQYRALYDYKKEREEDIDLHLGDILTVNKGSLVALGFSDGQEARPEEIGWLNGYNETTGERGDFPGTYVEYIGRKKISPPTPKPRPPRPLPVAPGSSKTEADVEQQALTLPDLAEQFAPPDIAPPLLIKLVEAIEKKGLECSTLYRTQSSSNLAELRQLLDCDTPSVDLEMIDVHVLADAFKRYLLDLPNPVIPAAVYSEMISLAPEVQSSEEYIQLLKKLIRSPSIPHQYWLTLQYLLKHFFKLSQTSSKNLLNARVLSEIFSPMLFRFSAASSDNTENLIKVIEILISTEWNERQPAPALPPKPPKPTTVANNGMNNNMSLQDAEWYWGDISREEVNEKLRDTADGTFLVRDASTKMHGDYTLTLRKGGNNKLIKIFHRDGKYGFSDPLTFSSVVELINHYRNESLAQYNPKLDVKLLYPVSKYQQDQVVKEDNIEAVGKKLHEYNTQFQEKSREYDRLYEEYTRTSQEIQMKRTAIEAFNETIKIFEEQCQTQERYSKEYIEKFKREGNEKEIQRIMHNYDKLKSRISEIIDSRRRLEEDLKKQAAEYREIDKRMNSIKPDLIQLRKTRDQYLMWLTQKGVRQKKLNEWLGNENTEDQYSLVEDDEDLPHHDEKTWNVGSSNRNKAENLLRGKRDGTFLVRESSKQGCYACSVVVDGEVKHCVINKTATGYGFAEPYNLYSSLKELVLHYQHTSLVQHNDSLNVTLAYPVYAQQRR

PI3Kγ = target: T3, PI3Kγ (Homo sapiens, UniProt P48736); assay: TR-FRET enzymatic activity assay, PI3Kγ; conditions: read-out: PI3Kγ IC50
T3 construct: made in house
T3 sequence (P48736 whole entry): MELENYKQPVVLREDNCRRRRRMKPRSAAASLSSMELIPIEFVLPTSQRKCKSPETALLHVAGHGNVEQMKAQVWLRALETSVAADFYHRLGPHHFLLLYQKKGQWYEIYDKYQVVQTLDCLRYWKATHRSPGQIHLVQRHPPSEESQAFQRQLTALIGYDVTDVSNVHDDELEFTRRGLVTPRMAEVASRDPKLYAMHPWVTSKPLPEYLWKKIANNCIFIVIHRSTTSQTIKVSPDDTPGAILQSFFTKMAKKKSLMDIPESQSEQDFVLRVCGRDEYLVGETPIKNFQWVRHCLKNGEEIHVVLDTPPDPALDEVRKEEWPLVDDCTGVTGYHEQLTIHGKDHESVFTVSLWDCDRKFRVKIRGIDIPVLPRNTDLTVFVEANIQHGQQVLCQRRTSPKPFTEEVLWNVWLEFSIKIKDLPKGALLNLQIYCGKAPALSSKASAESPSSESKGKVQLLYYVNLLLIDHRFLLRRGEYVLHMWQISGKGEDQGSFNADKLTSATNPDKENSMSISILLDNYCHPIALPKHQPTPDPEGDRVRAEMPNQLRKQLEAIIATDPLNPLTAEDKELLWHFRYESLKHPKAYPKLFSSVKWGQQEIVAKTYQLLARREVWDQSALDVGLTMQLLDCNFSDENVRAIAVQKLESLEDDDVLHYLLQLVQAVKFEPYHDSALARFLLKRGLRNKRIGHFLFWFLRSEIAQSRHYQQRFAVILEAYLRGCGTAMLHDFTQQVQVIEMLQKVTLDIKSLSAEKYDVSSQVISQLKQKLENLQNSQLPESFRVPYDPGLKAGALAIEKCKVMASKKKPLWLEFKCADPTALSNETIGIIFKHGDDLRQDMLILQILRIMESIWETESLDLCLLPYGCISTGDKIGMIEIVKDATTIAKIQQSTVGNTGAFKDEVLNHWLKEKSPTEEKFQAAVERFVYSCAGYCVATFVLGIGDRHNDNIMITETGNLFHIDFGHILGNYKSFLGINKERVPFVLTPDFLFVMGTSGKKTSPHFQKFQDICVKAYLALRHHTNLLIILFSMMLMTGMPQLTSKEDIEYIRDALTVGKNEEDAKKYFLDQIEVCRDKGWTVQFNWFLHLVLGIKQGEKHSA
Method in brief: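 Activity measured by time-resolved FRET; each isoform tested in its own enzymatic reaction.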

[1] = Table 2, TR-FRET, 2x Km ATP, 30 minutes at 25° C.

T1 sequence (P42338 whole entry): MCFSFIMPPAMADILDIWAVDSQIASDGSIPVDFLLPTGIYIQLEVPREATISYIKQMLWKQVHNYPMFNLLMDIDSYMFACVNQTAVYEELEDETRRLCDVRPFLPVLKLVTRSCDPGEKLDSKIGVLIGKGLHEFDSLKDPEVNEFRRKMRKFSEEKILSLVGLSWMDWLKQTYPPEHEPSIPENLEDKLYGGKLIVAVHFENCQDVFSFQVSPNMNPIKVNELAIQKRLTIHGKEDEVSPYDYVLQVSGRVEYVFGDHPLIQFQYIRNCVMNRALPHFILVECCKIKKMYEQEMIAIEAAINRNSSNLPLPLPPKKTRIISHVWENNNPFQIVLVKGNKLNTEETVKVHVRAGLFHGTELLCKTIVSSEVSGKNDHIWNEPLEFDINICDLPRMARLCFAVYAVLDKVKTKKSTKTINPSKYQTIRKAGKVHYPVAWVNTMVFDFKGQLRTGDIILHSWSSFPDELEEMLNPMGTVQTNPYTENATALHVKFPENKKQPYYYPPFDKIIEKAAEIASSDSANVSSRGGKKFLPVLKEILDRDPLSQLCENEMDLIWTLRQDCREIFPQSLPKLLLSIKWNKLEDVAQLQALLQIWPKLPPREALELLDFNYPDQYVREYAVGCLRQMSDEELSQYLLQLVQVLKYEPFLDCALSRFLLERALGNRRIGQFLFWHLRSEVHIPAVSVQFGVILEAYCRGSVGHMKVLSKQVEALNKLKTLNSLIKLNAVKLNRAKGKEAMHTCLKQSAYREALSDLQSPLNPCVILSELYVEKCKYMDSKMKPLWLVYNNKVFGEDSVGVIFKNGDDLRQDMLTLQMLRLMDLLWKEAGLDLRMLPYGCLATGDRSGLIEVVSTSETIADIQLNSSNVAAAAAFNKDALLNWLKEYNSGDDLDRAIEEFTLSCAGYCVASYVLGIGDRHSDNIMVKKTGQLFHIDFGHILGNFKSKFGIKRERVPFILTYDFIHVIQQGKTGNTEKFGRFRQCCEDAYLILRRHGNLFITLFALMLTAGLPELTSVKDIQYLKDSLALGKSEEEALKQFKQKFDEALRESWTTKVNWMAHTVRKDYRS
T1 sequence (P27986 whole entry partner): as the sequence (P27986 whole entry partner) above

Compound	IC50 (PI3Kβ; [1])	IC50 (PI3Kδ; [1])	IC50 (PI3Kγ)	IC50 (PI3Kβ; Table 2a, same assay)	IC50 (PI3Kδ; Table 2a, same assay)	IC50 (PI3Kγ; Table 2a, same assay)	IC50 (PI3Kγ; [1])
CC[C@H](Nc1nc(N)nc(Cl)c1C#N)c1nc2c(C#N)cccc2c(=O)n1-c1cc[nH]n1 [Compound 96, (S)-2-(1-((2-amino-6-chloro-5-cyanopyrimidin-4-yl)amino)propyl)-4-oxo-3-(1H-pyrazol-3-yl)-3,4-dihydroquinazoline-8-carbonitrile]	22 nM	12 nM	> 10000 nM	–	–	–	–
CC[C@H](Nc1ncnc2scnc12)c1nc2cccc(Br)c2c(=O)n1-c1cn[nH]c1 [Compound 100, (S)-5-bromo-3-(1H-pyrazol-4-yl)-2-(1-(thiazolo[5,4-d]pyrimidin-7-ylamino)propyl)quinazolin-4(3H)-one]	22 nM	4 nM	–	–	–	–	280 nM
CC[C@H](Nc1nc(F)nc2[nH]cnc12)c1nc2c(Cl)ccc(Cl)c2c(=O)n1-c1cn[nH]c1 [Compound 55, (S)-5,8-dichloro-2-(1-((2-fluoro-9H-purin-6-yl)amino)propyl)-3-(1H-pyrazol-4-yl)quinazolin-4(3H)-one]	570 nM	65 nM	> 10000 nM	–	–	–	–
C[C@H](Nc1nc(N)nc(N)c1Cl)c1nc2c(Cl)cccc2c(=O)n1-c1cc[nH]n1 [Compound 156, (S)-8-chloro-2-(1-((2,6-diamino-5-chloropyrimidin-4-yl)amino)ethyl)-3-(1H-pyrazol-3-yl)quinazolin-4(3H)-one]	–	–	–	26 nM	9 nM	> 10000 nM	–
N#Cc1c(N)nc(N)nc1N[C@H](c1nc2c(Cl)cccc2c(=O)n1-c1cc[nH]n1)C1CC1 [Compound 30, (S)-2,4-diamino-6-(((8-chloro-4-oxo-3-(1H-pyrazol-3-yl)-3,4-dihydroquinazolin-2-yl)(cyclopropyl)methyl)amino)pyrimidine-5-carbonitrile]	2 nM	3 nM	–	–	–	–	1300 nM
C[C@H](Nc1nc(N)nc2[nH]ncc12)c1nc2cccc(Cl)c2c(=O)n1-c1cc[nH]n1 [Compound 90, (S)-2-(1-((6-amino-1H-pyrazolo[3,4-d]pyrimidin-4-yl)amino)ethyl)-5-chloro-3-(1H-pyrazol-3-yl)quinazolin-4(3H)-one]	1800 nM	830 nM	> 10000 nM	–	–	–	–
C[C@H](Nc1nc(N)nc(N)c1Cl)c1nc2cccc(C(F)F)c2c(=O)n1-c1cc[nH]n1 [Compound 126, (S)-2-(1-((2,6-diamino-5-chloropyrimidin-4-yl)amino)ethyl)-5-(difluoromethyl)-3-(1H-pyrazol-3-yl)quinazolin-4(3H)-one]	5 nM	3 nM	–	–	–	–	2800 nM
CCC[C@H](Nc1nc(N)nc(N)c1C#N)c1nc2cccc(Cl)c2c(=O)n1-c1cc[nH]n1 [Compound 253, (S)-2,4-diamino-6-((1-(5-chloro-4-oxo-3-(1H-pyrazol-3-yl)-3,4-dihydroquinazolin-2-yl)butyl)amino)pyrimidine-5-carbonitrile]	–	–	–	4 nM	1 nM	320 nM	–
C[C@H](Nc1nc(N)nc(N)c1C#N)c1nc2cccc(C(F)F)c2c(=O)n1-c1cc[nH]n1 [Compound 211, (S)-2,4-diamino-6-((1-(5-(difluoromethyl)-4-oxo-3-(1H-pyrazol-3-yl)-3,4-dihydroquinazolin-2-yl)ethyl)amino)pyrimidine-5-carbonitrile]	–	–	–	0.6 nM	0.3 nM	82 nM	–
C[C@H](Nc1nc(N)nc(N)c1Cl)c1nc2c(Cl)ccc(F)c2c(=O)n1-c1cc[nH]n1 [Compound 147, (S)-8-chloro-2-(1-((2,6-diamino-5-chloropyrimidin-4-yl)amino)ethyl)-5-fluoro-3-(1H-pyrazol-3-yl)quinazolin-4(3H)-one]	–	–	–	14 nM	15 nM	> 10000 nM	–

Now from value to molecule:

IC50 (PI3Kβ; [1])	IC50 (PI3Kδ; [1])	IC50 (PI3Kγ)	IC50 (PI3Kβ; Table 2a, same assay)	IC50 (PI3Kδ; Table 2a, same assay)	IC50 (PI3Kγ; Table 2a, same assay)	IC50 (PI3Kγ; [1])	Compound
530 nM	720 nM	> 10000 nM	–	–	–	–	CC[C@H](NC(=O)c1cnn2cccnc12)c1nc2c(Cl)ccc(Cl)c2c(=O)n1-c1cc[nH]n1 [Compound 120, (S)—N-(1-(5,8-dichloro-4-oxo-3-(1H-pyrazol-3-yl)-3,4-dihydroquinazolin-2-yl)propyl)pyrazolo[1,5-a]pyrimidine-3-carboxamide]
–	–	–	0.6 nM	0.2 nM	83 nM	–	C[C@H](Nc1nc(N)nc(N)c1C#N)c1nc2c(Cl)ccc(Cl)c2c(=O)n1-c1cn[nH]c1 [Compound 217, (S)-2,4-diamino-6-((1-(5,8-dichloro-4-oxo-3-(1H-pyrazol-4-yl)-3,4-dihydroquinazolin-2-yl)ethyl)amino)pyrimidine-5-carbonitrile]
9 nM	8 nM	> 10000 nM	–	–	–	–	O=c1c2c(Cl)cccc2nc([C@H](COCc2ccccc2)Nc2ncnc3scnc23)n1-c1cc[nH]n1 [Compound 48, (R)-2-(2-(benzyloxy)-1-(thiazolo[5,4-d]pyrimidin-7-ylamino)ethyl)-5-chloro-3-(1H-pyrazol-3-yl)quinazolin-4(3H)-one]
–	–	–	2 nM	4 nM	2000 nM	–	N#Cc1c(N)nc(N)nc1N[C@H](c1nc2cccc(C(F)F)c2c(=O)n1-c1cc[nH]n1)C1CCC1 [Compound 131, (S)-2,4-diamino-6-((cyclobutyl(5-(difluoromethyl)-4-oxo-3-(1H-pyrazol-3-yl)-3,4-dihydroquinazolin-2-yl)methyl)amino)pyrimidine-5-carbonitrile]
–	–	–	3 nM	1 nM	160 nM	–	CCC[C@H](Nc1nc(N)nc(N)c1C#N)c1nc2cccc(Cl)c2c(=O)n1-c1cn[nH]c1 [Compound 249, (S)-2,4-diamino-6-((1-(5-chloro-4-oxo-3-(1H-pyrazol-4-yl)-3,4-dihydroquinazolin-2-yl)butyl)amino)pyrimidine-5-carbonitrile]
–	–	–	270 nM	86 nM	> 10000 nM	–	Nc1nc(N)c(Cl)c(N[C@H](c2nc3c(Cl)cc(F)cc3c(=O)n2-c2cc[nH]n2)C2CCC2)n1 [Compound 129, (S)-8-chloro-2-(cyclobutyl((2,6-diamino-5-chloropyrimidin-4-yl)amino)methyl)-6-fluoro-3-(1H-pyrazol-3-yl)quinazolin-4(3H)-one]
3100 nM	1900 nM	> 10000 nM	–	–	–	–	Cc1n[nH]c2nc(Cl)nc(N[C@@H](C)c3nc4cccc(Cl)c4c(=O)n3-c3cc[nH]n3)c12 [Compound 89, (S)-5-chloro-2-(1-((6-chloro-3-methyl-1H-pyrazolo[3,4-d]pyrimidin-4-yl)amino)ethyl)-3-(1H-pyrazol-3-yl)quinazolin-4(3H)-one]
–	–	–	2 nM	3 nM	7500 nM	–	N#Cc1c(N)nc(N)nc1N[C@H](c1nc2c(C(F)F)cc(F)cc2c(=O)n1-c1cc[nH]n1)C1CC1 [Compound 143, (S)-2,4-diamino-6-((cyclopropyl(8-(difluoromethyl)-6-fluoro-4-oxo-3-(1H-pyrazol-3-yl)-3,4-dihydroquinazolin-2-yl)methyl)amino)pyrimidine-5-carbonitrile]
84 nM	22 nM	–	–	–	–	2000 nM	CC[C@H](Nc1nc(N)nc(N)c1C#N)c1nc2c(C)cccc2c(=O)n1-c1cn[nH]c1 [Compound 33, (S)-2,4-diamino-6-((1-(8-methyl-4-oxo-3-(1H-pyrazol-4-yl)-3,4-dihydroquinazolin-2-yl)propyl)amino)pyrimidine-5-carbonitrile]
–	–	–	9 nM	8 nM	5000 nM	–	C[C@H](Nc1nc(N)nc(N)c1Cl)c1nc2c(Cl)ccc(C(F)F)c2c(=O)n1-c1cc[nH]n1 [Compound 227, (S)-8-chloro-2-(1-((2,6-diamino-5-chloropyrimidin-4-yl)amino)ethyl)-5-(difluoromethyl)-3-(1H-pyrazol-3-yl)quinazolin-4(3H)-one]
–	–	–	37 nM	24 nM	9300 nM	–	Nc1nc(N)c(Cl)c(N[C@H](c2nc3c(C(F)(F)F)cccc3c(=O)n2-c2cc[nH]n2)C2CC2)n1 [Compound 134, (S)-2-(cyclopropyl((2,6-diamino-5-chloropyrimidin-4-yl)amino)methyl)-3-(1H-pyrazol-3-yl)-8-(trifluoromethyl)quinazolin-4(3H)-one]
–	–	–	5 nM	1 nM	405 nM	–	N#Cc1c(N)nc(N)nc1N[C@H](c1nc2ccc(F)c(Cl)c2c(=O)n1-c1cc[nH]n1)C1CC1 [Compound 262, (S)-2,4-diamino-6-(((5-chloro-6-fluoro-4-oxo-3-(1H-pyrazol-3-yl)-3,4-dihydroquinazolin-2-yl)(cyclopropyl)methyl)amino)pyrimidine-5-carbonitrile]
240 nM	18 nM	> 10000 nM	–	–	–	–	CC[C@H](Nc1ncnc2sccc12)c1nc2c(Cl)ccc(Cl)c2c(=O)n1-c1cc[nH]n1 [Compound 54, (S)-5,8-dichloro-3-(1H-pyrazol-3-yl)-2-(1-(thieno[2,3-d]pyrimidin-4-ylamino)propyl)quinazolin-4(3H)-one]
49 nM	11 nM	–	–	–	–	2400 nM	Nc1nc(N)c(Cl)c(N[C@@H](c2ccccc2)c2nc3cccc(Cl)c3c(=O)n2-c2cn[nH]c2)n1 [Compound 107, (S)-5-chloro-2-(((2,6-diamino-5-chloropyrimidin-4-yl)amino)(phenyl)methyl)-3-(1H-pyrazol-4-yl)quinazolin-4(3h)-one]
–	–	–	3200 nM	310 nM	> 10000 nM	–	Cc1c[nH]nc1-n1c([C@@H](Nc2nc(N)nc(N)c2Cl)C2CC2)nc2c(C#N)cccc2c1=O [Compound 204, (S)-2-(cyclopropyl((2,6-diamino-5-chloropyrimidin-4-yl)amino)methyl)-3-(4-methyl-1H-pyrazol-3-yl)-4-oxo-3,4-dihydroquinazoline-8-carbonitrile]
